For orientation: IC50 means the midpoint of a concentration-inhibition curve.

The target of this test is T1, pEGFR in CUTO14 cells (Homo sapiens, UniProt P00533, DUP767-769).
T1 construct: endogenous in cells; host or cells: CUTO14 cells
T1 sequence (P00533 with tags, fused parts or gaps DUP767-769): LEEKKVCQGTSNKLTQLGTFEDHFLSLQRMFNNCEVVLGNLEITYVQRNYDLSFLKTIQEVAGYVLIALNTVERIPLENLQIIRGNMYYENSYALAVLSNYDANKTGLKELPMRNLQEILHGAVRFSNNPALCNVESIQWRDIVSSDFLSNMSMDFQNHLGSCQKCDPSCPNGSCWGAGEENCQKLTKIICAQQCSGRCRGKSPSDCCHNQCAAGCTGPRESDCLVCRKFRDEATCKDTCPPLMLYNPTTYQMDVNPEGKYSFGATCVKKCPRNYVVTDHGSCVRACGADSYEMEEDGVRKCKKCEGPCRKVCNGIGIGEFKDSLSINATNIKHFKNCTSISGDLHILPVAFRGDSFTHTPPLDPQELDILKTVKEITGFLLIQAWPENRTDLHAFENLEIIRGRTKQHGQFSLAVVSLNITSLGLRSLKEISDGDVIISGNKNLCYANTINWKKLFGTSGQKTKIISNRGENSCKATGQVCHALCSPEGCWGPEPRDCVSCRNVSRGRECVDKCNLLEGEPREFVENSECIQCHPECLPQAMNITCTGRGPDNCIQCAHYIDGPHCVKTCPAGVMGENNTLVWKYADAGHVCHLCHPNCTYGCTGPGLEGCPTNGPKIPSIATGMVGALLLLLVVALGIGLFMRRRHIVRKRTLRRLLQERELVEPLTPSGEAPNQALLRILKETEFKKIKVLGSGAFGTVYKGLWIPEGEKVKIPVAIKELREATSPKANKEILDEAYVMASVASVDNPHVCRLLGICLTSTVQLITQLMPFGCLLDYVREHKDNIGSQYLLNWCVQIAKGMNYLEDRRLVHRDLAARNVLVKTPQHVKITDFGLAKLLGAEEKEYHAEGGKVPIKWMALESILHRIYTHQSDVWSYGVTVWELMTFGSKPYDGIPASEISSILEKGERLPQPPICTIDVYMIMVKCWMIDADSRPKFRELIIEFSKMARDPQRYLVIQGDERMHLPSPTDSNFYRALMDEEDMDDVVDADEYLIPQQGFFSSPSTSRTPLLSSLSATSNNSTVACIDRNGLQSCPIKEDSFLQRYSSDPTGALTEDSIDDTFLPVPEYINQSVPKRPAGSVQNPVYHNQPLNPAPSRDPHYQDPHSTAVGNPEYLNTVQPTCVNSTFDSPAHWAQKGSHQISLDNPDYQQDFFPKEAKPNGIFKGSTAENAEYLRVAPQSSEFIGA
As to the kind of experiment: Inhibitor activity on EGFR phosphorylation (pEGFR AlphaLISA, 2 h), CUTO14 cells. Type of test: cell-based. As for the experimental part:
CUTO14 cells were obtained from Dr. Robert C. Doebele at the University of Colorado.
Shake 350 rpm for 1 hr in the dark • 3.4 Prepare donor mix under low light conditions prior to use. Dispense 5 μL of donor mix to all the wells. Mix well on the shaker, seal and wrap in aluminum foil and incubate 1.5 hrs at room temperature in the dark • 3.5 Transfer 18.5 μL mixture to OptiPlate 384, and read using an Envision.
Turning to `C=CC(=O)N1CC(C)(C)[C@H]1C#Cc1cnccc1-c1[nH]c2c(c1Nc1cccc(Cl)c1OC)C(=O)NCC2` [compound 232, 3-[(3-chloro-2-methoxyphenyl)amino]-2-(3-{2-[(2R)-3,3-dimethyl-1-(prop-2-enoyl)azetidin-2-yl]ethynyl}pyridin-4-yl)-1H,5H,6H,7H-pyrrolo[3,2-c]pyridin-4-one], the IC50 is less than 100 nM.

`C=CC(=O)N1CC(C)(C)C[C@@H]1C#Cc1cnccc1-c1[nH]c2c(c1Nc1cccc(F)c1OC)C(=O)NCC2` [compound 253, 2-(3-{2-[(2R)-4,4-dimethyl-1-(prop-2-enoyl)pyrrolidin-2-yl]ethynyl}pyridin-4-yl)-3-[(3-fluoro-2-methoxyphenyl)amino]-1H,5H,6H,7H-pyrrolo[3,2-c]pyridin-4-one] showed an IC50 of less than 100 nM.

For `C=CC(=O)N(C)C(C)(C)C#Cc1cnccc1-c1[nH]c2c(c1Nc1cccc(F)c1OC)C(=O)NCC2` [compound 259, N-[4-(4-{3-[(3-fluoro-2-methoxyphenyl)amino]-4-oxo-1H,5H,6H,7H-pyrrolo[3,2-c]pyridin-2-yl}pyridin-3-yl)-2-methylbut-3-yn-2-yl]-N-methylprop-2-enamide], the IC50 was less than 100 nM.

The molecule `C=CC(=O)NC1(C#Cc2cnccc2-c2[nH]c3c(c2Nc2cccc(F)c2OC)C(=O)NCC3)COC1` [compound 263] gave a 50% inhibitory concentration (IC50) of less than 100 nM.

In turn, `C=CC(=O)N1[C@H]2CC[C@H](C2)[C@@H]1COc1cnccc1-c1[nH]c2c(c1Nc1cccc(Cl)c1OC)C(=O)NCC2` [compound 274, 3-[(3-chloro-2-methoxyphenyl)amino]-2-(3-{[(1S,3R,4R)-2-(prop-2-enoyl)-2-azabicyclo[2.2.1]heptan-3-yl]methoxy}pyridin-4-yl)-1H,5H,6H,7H-pyrrolo[3,2-c]pyridin-4-one] showed an IC50 of less than 100 nM.

Turning to `CC#CC(=O)N1CC[C@H]1COc1cnccc1-c1[nH]c2c(c1Nc1cccc(Cl)c1OC)C(=O)NCC2` [compound 288, 2-(3-{[(2S)-1-(but-2-ynoyl)azetidin-2-yl]methoxy}pyridin-4-yl)-3-[(3-chloro-2-methoxyphenyl)amino]-1H,5H,6H,7H-pyrrolo[3,2-c]pyridin-4-one], the concentration for half-maximal inhibition (IC50) is less than 100 nM.

As for `CC#CC(=O)N1CC[C@@H]1COc1cnccc1-c1[nH]c2c(c1Nc1cccc(F)c1OC)C(=O)NCC2` [compound 289, 2-(3-{[(2R)-1-(but-2-ynoyl)azetidin-2-yl]methoxy}pyridin-4-yl)-3-[(3-fluoro-2-methoxyphenyl)amino]-1H,5H,6H,7H-pyrrolo[3,2-c]pyridin-4-one], the IC50 is less than 100 nM.

As to `CC#CC(=O)N1CCC[C@]1(C)C#Cc1cnccc1-c1[nH]c2c(c1Nc1cccc(F)c1OC)C(=O)NCC2` [compound 291, 2-(3-{2-[(2R)-1-(but-2-ynoyl)-2-methylpyrrolidin-2-yl]ethynyl}pyridin-4-yl)-3-[(3-fluoro-2-methoxyphenyl)amino]-1H,5H,6H,7H-pyrrolo[3,2-c]pyridin-4-one], the IC50 is less than 100 nM.

`C=C(F)C(=O)N1CC[C@H]1COc1cnccc1-c1[nH]c2c(c1Nc1cccc(F)c1OC)C(=O)NCC2` [compound 296, 3-[(3-fluoro-2-methoxyphenyl)amino]-2-(3-{[(2S)-1-(2-fluoroprop-2-enoyl)azetidin-2-yl]methoxy}pyridin-4-yl)-1H,5H,6H,7H-pyrrolo[3,2-c]pyridin-4-one] displayed an IC50 of less than 100 nM.

As to `CC#CC(=O)NC(C)(C)C#Cc1cnccc1-c1[nH]c2c(c1Nc1cccc(F)c1OC)C(=O)NCC2` [compound 302, N-[4-(4-{3-[(3-fluoro-2-methoxyphenyl)amino]-4-oxo-1H,5H,6H,7H-pyrrolo[3,2-c]pyridin-2-yl}pyridin-3-yl)-2-methylbut-3-yn-2-yl]but-2-ynamide], the 50% inhibitory concentration (IC50) was less than 100 nM.

The molecule `C=CC(=O)N1CC2CC1(C#Cc1cnccc1-c1[nH]c3c(c1Nc1cccc(F)c1OC)C(=O)NCC3)C2` [compound 318, 3-[(3-fluoro-2-methoxyphenyl)amino]-2-(3-{2-[2-(prop-2-enoyl)-2-azabicyclo[2.1.1]hexan-1-yl]ethynyl}pyridin-4-yl)-1H,5H,6H,7H-pyrrolo[3,2-c]pyridin-4-one] displayed an IC50 of less than 100 nM.

Regarding `C=CC(=O)N1C(C)CC1COc1cnccc1-c1[nH]c2c(c1Nc1cccc(F)c1OC)C(=O)NCC2` (stereo not drawn) [compound 333], the half-inhibitory concentration (IC50) was less than 100 nM.

Take `COc1c(F)cccc1Nc1c(-c2ccncc2C#C[C@@]2(C)CCCN2C(=O)/C=C/CN(C)C)[nH]c2c1C(=O)NCC2` [compound 335, 2-(3-{2-[(2R)-1-[(2E)-4-(dimethylamino)but-2-enoyl]-2-methylpyrrolidin-2-yl]ethynyl}pyridin-4-yl)-3-[(3-fluoro-2-methoxyphenyl)amino]-1H,5H,6H,7H-pyrrolo[3,2-c]pyridin-4-one]: the concentration for half-maximal inhibition (IC50) is less than 100 nM.

For `COc1c(F)cccc1Nc1c(-c2ccncc2C#C[C@H]2CC(C)(C)CN2C(=O)/C=C/CN(C)C)[nH]c2c1C(=O)NCC2` [compound 344, 2-(3-{2-[(2R)-1-[(2E)-4-(dimethylamino)but-2-enoyl]-4,4-dimethylpyrrolidin-2-yl]ethynyl}pyridin-4-yl)-3-[(3-fluoro-2-methoxyphenyl)amino]-1H,5H,6H,7H-pyrrolo[3,2-c]pyridin-4-one], the 50% inhibitory concentration (IC50) was less than 100 nM.

`COc1c(F)cccc1Nc1c(-c2ccncc2C#C[C@H]2C[C@@H]3C[C@@H]3N2C(=O)/C=C/CN(C)C)[nH]c2c1C(=O)NCC2` [compound 345, 2-(3-{2-[(1S,3R,5S)-2-[(2E)-4-(dimethylamino)but-2-enoyl]-2-azabicyclo[3.1.0]hexan-3-yl]ethynyl}pyridin-4-yl)-3-[(3-fluoro-2-methoxyphenyl)amino]-1H,5H,6H,7H-pyrrolo[3,2-c]pyridin-4-one] showed an IC50 of less than 100 nM.

Consider `CC#CC(=O)N1CC[C@@H]1COc1cnccc1-c1[nH]c2c(c1Nc1cccc(Cl)c1CC)C(=O)NCC2` [compound 348, 2-(3-{[(2R)-1-(but-2-ynoyl)azetidin-2-yl]methoxy}pyridin-4-yl)-3-[(3-chloro-2-ethylphenyl)amino]-1H,5H,6H,7H-pyrrolo[3,2-c]pyridin-4-one], for which the concentration for half-maximal inhibition (IC50) was less than 100 nM.

Molecule `COc1c(Cl)cccc1Nc1c(-c2ccncc2C#C[C@@]2(C)CCCN2C(=O)/C=C/CN(C)C)[nH]c2c1C(=O)NCC2` [compound 362, 3-[(3-chloro-2-methoxyphenyl)amino]-2-(3-{2-[(2R)-1-[(2E)-4-(dimethylamino)but-2-enoyl]-2-methylpyrrolidin-2-yl]ethynyl}pyridin-4-yl)-1H,5H,6H,7H-pyrrolo[3,2-c]pyridin-4-one] yielded a half-maximal inhibitory concentration (IC50) of less than 100 nM.

Take `C=C(F)C(=O)N1CC[C@H]1COc1cnccc1-c1[nH]c2c(c1Nc1cccc(Cl)c1OC)C(=O)NCC2` [compound 363, 3-[(3-chloro-2-methoxyphenyl)amino]-2-(3-{[(2S)-1-(2-fluoroprop-2-enoyl)azetidin-2-yl]methoxy}pyridin-4-yl)-1H,5H,6H,7H-pyrrolo[3,2-c]pyridin-4-one]: the half-inhibitory concentration (IC50) was less than 100 nM.

For the molecule `C=CC(=O)N[C@@H](C)C#Cc1cnccc1-c1[nH]c2c(c1Nc1cccc(F)c1OC)C(=O)NCC2` [compound 375, N-[(2S)-4-(4-{3-[(3-fluoro-2-methoxyphenyl)amino]-4-oxo-1H,5H,6H,7H-pyrrolo[3,2-c]pyridin-2-yl}pyridin-3-yl)but-3-yn-2-yl]prop-2-enamide], the IC50 was less than 100 nM.

In the case of `C=CC(=O)N[C@@H](C)C#Cc1cnccc1-c1[nH]c2c(c1Nc1cccc(Cl)c1OC)C(=O)NCC2` [compound 376, N-[(2S)-4-(4-{3-[(3-chloro-2-methoxyphenyl)amino]-4-oxo-1H,5H,6H,7H-pyrrolo[3,2-c]pyridin-2-yl}pyridin-3-yl)but-3-yn-2-yl]prop-2-enamide], the half-inhibitory concentration (IC50) is less than 100 nM.

`COc1c(Cl)cccc1Nc1c(-c2ccncc2C#C[C@H]2C[C@@H]3C[C@@H]3N2C(=O)/C=C/CN(C)C)[nH]c2c1C(=O)NCC2` [compound 466, 3-[(3-chloro-2-methoxyphenyl)amino]-2-(3-{2-[(1S,3R,5S)-2-[(2E)-4-(dimethylamino)but-2-enoyl]-2-azabicyclo[3.1.0]hexan-3-yl]ethynyl}pyridin-4-yl)-1H,5H,6H,7H-pyrrolo[3,2-c]pyridin-4-one]: the half-maximal inhibitory concentration (IC50) was less than 100 nM.

`C=CC(=O)N1CC(C)(C)[C@H]1COc1cnccc1-c1[nH]c2c(c1Nc1cccc(Cl)c1OC)C(=O)NCC2` [compound 512, 3-[(3-chloro-2-methoxyphenyl)amino]-2-(3-{[(2S)-3,3-dimethyl-1-(prop-2-enoyl)azetidin-2-yl]methoxy}pyridin-4-yl)-1H,5H,6H,7H-pyrrolo[3,2-c]pyridin-4-one]: the IC50 was less than 100 nM.

Molecule `C=CC(=O)N1CC[C@@]1(C)C#Cc1cnccc1-c1[nH]c2c(c1Nc1cccc(Cl)c1OC)C(=O)NCC2` [compound 550, 3-[(3-chloro-2-methoxyphenyl)amino]-2-(3-{2-[(2S)-2-methyl-1-(prop-2-enoyl)azetidin-2-yl]ethynyl}pyridin-4-yl)-1H,5H,6H,7H-pyrrolo[3,2-c]pyridin-4-one] gave a half-maximal inhibitory concentration (IC50) of more than 1000 nM.

For the molecule `C=CC(=O)N1CC[C@]1(C)C#Cc1cnccc1-c1[nH]c2c(c1Nc1cccc(Cl)c1OC)C(=O)NCC2` [compound 551, 3-[(3-chloro-2-methoxyphenyl)amino]-2-(3-{2-[(2R)-2-methyl-1-(prop-2-enoyl)azetidin-2-yl]ethynyl}pyridin-4-yl)-1H,5H,6H,7H-pyrrolo[3,2-c]pyridin-4-one], the IC50 is more than 1000 nM.

Values taken from patent US20230364070A1, “PYRROLO[3,2-C]PYRIDIN-4-ONE DERIVATIVES USEFUL IN THE TREATMENT OF CANCER” (Scorpion Therapeutics, Inc., priority 2020, published 2023).
